# In article PMC12196455, “Effect of Tegoprazan on Tacrolimus and Mycophenolate Levels in Kidney Transplant Recipients: A Randomized Controlled Study Using a Smart Trial Platform” (Pharmaceuticals, 2025):
# What was measured:
# [1] = Time in therapeutic range (TTR) analysis of tacrolimus and mycophenolate; format: in vivo, human (kidney transplant recipients); conditions: across all visits; result in words
# Experimental: Continuous variables were expressed as mean ± standard deviation, while categorical variables were presented as numbers and percentages. For normally distributed data, t-tests were utilized; for non-normally distributed data, the Mann–Whitney U test was applied. Intragroup variations between baseline and 12 weeks were analyzed using paired t-tests. Differences in the frequency of transplant outcomes were assessed using the χ^2 test or Fisher’s exact test. Differences in GI symptom questionnaire scores, assessed via e-diary surveys, were analyzed using t-tests or the Mann–Whitney U test, as appropriate. We conducted a TTR analysis for both tacrolimus and mycophenolate to evaluate the potential effects of tegoprazan on immunosuppressant stability. The predefined therapeutic range was set at […] for tacrolimus and at 1–3.5 µg/mL for mycophenolate. TTR was calculated as the proportion of time each drug level remained within the therapeutic window across the study period. All statistical analyses were performed using IBM SPSS Statistics 25 for Windows, […]. A p-value of <0.05 was considered statistically significant.
# [2] = Mycophenolate (mycophenolic acid) trough level (12 h post-dose, PETINIA immunoassay) in the randomized trial of tegoprazan vs pantoprazole; format: in vivo, human (kidney transplant recipients); conditions: for Mycophenolate trough level: mean ± SD
# Text: (§1) This study was a prospective, open-label, randomized controlled trial conducted on KTRs receiving tacrolimus, mycophenolate, and steroids. This study was registered at the Clinical Research Information Service (CRIS), Republic of Korea (Registration No. KCT 0010481, registration date: 20 May 2025). Data analysis took place at Kyungpook National University Hospital, Republic of Korea, from August 2022 to May 2023. The trial adhered to the approval guidelines of the Institutional Review Board of Kyungpook National University Hospital (IRB No. 2022-02-013, approval date: 31 March 2022).
# (§2) Patients were randomly assigned to either the P-CAB (tegoprazan 50 mg) group or the PPI (pantoprazole 20 mg) group. Enrolled KTRs were scheduled for four visits at baseline, 4, 8, and 12 weeks post-randomization. The dosage of immunosuppressants remained unchanged throughout the 12-week study period. Blood tests, including measurements of immunosuppressant trough levels, serum creatinine levels, estimated glomerular filtration rate (eGFR), and vital signs, were conducted at each visit.
# (§3) The primary outcome was to compare changes in drug concentrations of tacrolimus and mycophenolate following the administration of tegoprazan in KTRs.
# (§4) Trough levels of tacrolimus and mycophenolate were measured at 12 h post-dose, following standard clinical practice for therapeutic drug monitoring in transplant recipients. Blood samples were collected at scheduled morning visits, and the 12 h interval was confirmed using electronic pillbox adherence data or patient interviews. Tacrolimus concentrations were measured using the Dimension® TAC Flex® reagent cartridge (Siemens Healthcare Diagnostics Inc., Newark, NJ, USA) on the Siemens Dimension® Integrated Chemistry System, employing a homogeneous chemiluminescent immunoassay (CLIA) method. Mycophenolic acid concentrations were measured using the Dimension® MPA Flex® reagent cartridge (Siemens Healthcare Diagnostics Inc., Newark, USA) on the same system, based on a particle-enhanced turbidimetric inhibition immunoassay (PETINIA) method. All assays were conducted in the Department of Laboratory Medicine at the study hospital.
# [3] = Transplant outcomes (eGFR, de novo DSA, BPAR, allograft loss); format: in vivo, human (kidney transplant recipients); conditions: for eGFR: mean ± SD; for Allograft Loss / BPAR: during the 12-week study period
# Experimental: Patients were randomly assigned to either the P-CAB (tegoprazan 50 mg) group or the PPI (pantoprazole 20 mg) group. Enrolled KTRs were scheduled for four visits at baseline, 4, 8, and 12 weeks post-randomization. The dosage of immunosuppressants remained unchanged throughout the 12-week study period. Blood tests, including measurements of immunosuppressant trough levels, serum creatinine levels, estimated glomerular filtration rate (eGFR), and vital signs, were conducted at each visit. The collected data included patient demographics such as gender, age, height, weight, blood tacrolimus, mycophenolate concentrations, kidney function, liver function tests, allograft loss, and acute rejection episodes. We collected DSA information. DSA was identified using the Luminex single-antigen assay (LSA). […] The secondary outcome included evaluating transplant outcomes and GI symptoms using questionnaires. The transplant outcomes assessed were changes in eGFR, biopsy-proven acute rejection (BPAR), allograft loss, and de novo DSA during the study period. De novo DSA was defined as the new appearance of antibodies against mismatched donor human leukocyte antigen (HLA) not present at baseline.
# [4] = GI symptom questionnaires (GERD-HRQL, RDQ) via electronic diary app; format: in vivo, human (kidney transplant recipients); design: key to GERD-HRQL score: sum of 10 items each scored 0-5; higher = poorer quality of life; conditions: mean ± SD
# Experimental: Changes in GI symptoms were measured and recorded using a self-developed electronic diary app installed on participants’ mobile phones. This app facilitated the assessment of GI symptoms through the Gastroesophageal Reflux Disease–Health-Related Quality of Life (GERD-HRQL) and Reflux Disease Questionnaire (RDQ). The GERD-HRQL scale comprises 10 items, addressing both GI symptoms and the patient’s overall condition. Each item is scored on a scale from 0 to 5, with higher scores indicating a poorer quality of life. The RDQ is a 6-item self-administered questionnaire designed to evaluate the severity and frequency of heartburn sensation, gastric acid regurgitation, and dyspepsia.
# The secondary outcome included evaluating transplant outcomes and GI symptoms using questionnaires. The transplant outcomes assessed were changes in eGFR, biopsy-proven acute rejection (BPAR), allograft loss, and de novo DSA during the study period. De novo DSA was defined as the new appearance of antibodies against mismatched donor human leukocyte antigen (HLA) not present at baseline.
# [5] = Tacrolimus blood trough level (12 h post-dose, chemiluminescent immunoassay) in the randomized trial of tegoprazan vs pantoprazole; format: in vivo, human (kidney transplant recipients); conditions: for Tacrolimus trough level: mean ± SD
# Text: as §1, §2, §3, §4
# [6] = design: method as in PMID 34246485; conditions: result in words; cited from earlier work
# [7] = Adverse event monitoring; format: in vivo, human (kidney transplant recipients); conditions: 12 weeks; for Overall incidence of AEs: p = 0.032 between groups
# Experimental: Safety evaluations were conducted through comprehensive monitoring, including physical examinations, clinical laboratory tests, vital signs, and the documentation of adverse events (AEs). Participants were encouraged to voluntarily report AEs regularly throughout the study.
# [8] = result in words, cited from earlier work
# [9] = result in words, cited from earlier work; remark: listed apart in the source
# [10] = P-CAB group (tegoprazan 50 mg, n = 26), Baseline
# [11] = P-CAB group (tegoprazan 50 mg, n = 26), Week 4
# [12] = P-CAB group (tegoprazan 50 mg, n = 26), Week 8
# [13] = P-CAB group (tegoprazan 50 mg, n = 26), Week 12
# [14] = PPI group (pantoprazole 20 mg, n = 25), Baseline
# [15] = PPI group (pantoprazole 20 mg, n = 25), Week 4
# [16] = PPI group (pantoprazole 20 mg, n = 25), Week 8
# [17] = PPI group (pantoprazole 20 mg, n = 25), Week 12
# [18] = Baseline, higher score = poorer quality of life
# [19] = 12-week follow-up in KTRs, result in words
smiles,measurement,setting,value
"COc1c(C)c2c(c(O)c1C/C=C(\C)CCC(=O)O)C(=O)OC2 [Mycophenolate, mycophenolate]","Time in therapeutic range (TTR), P-CAB vs PPI group",[1],comparable between the two groups
same,Mycophenolate trough level,[2]; [10],2.3 ± 1.4 µg/mL
same,Mycophenolate trough level,[2]; [11],2.5 ± 1.1 µg/mL
same,Mycophenolate trough level,[2]; [12],2.8 ± 1.8 µg/mL
same,Mycophenolate trough level,[2]; [13],2.7 ± 1.4 µg/mL
same,Mycophenolate trough level,[2]; [14],2.6 ± 1.3 µg/mL
same,Mycophenolate trough level,[2]; [15],2.7 ± 1.1 µg/mL
same,Mycophenolate trough level,[2]; [16],2.7 ± 2.4 µg/mL
same,Mycophenolate trough level,[2]; [17],2.6 ± 1.4 µg/mL
"Cc1nc2cc(C(=O)N(C)C)cc(O[C@H]3CCOc4cc(F)cc(F)c43)c2[nH]1 [P-CAB, tegoprazan]",eGFR,[3]; Baseline,62.8 ± 17.1 mL/min/1.73 m^2
same,eGFR,[3]; Week 4,61.8 ± 13.0 mL/min/1.73 m^2
same,eGFR,[3]; Week 8,60.6 ± 12.8 mL/min/1.73 m^2
same,eGFR,[3]; Week 12,63.5 ± 16.5 mL/min/1.73 m^2
same,Allograft Loss,[3],0 number
same,BPAR,[3],0 number
same,RDQ score,[4]; Baseline,4.7 ± 4.7
same,GERD-HRQL score,[4]; [18],4.9 ± 4.3
same,GERD-HRQL score,[4]; Week 4,0.9 ± 1.4
same,RDQ score,[4]; Week 4,1.0 ± 2.1
same,GERD-HRQL score,[4]; Week 8,0.7 ± 1.0
same,RDQ score,[4]; Week 8,0.6 ± 1.2
same,GERD-HRQL score,[4]; Week 12,0.7 ± 1.6
same,RDQ score,[4]; Week 12,0.7 ± 1.9
same,Effect on blood trough level of tacrolimus,[5]; [19],does not alter
same,Effect of food intake on pharmacokinetic and pharmacodynamic properties,[6],unaffected by food intake
same,AE: Abdominal discomfort,[7],3 (11.5) number (%)
same,AE: Arthralgia,[7],1 (3.8) number (%)
same,AE: Constipation,[7],2 (7.7) number (%)
same,AE: Diarrhea,[7],5 (19.2) number (%)
same,AE: Headache,[7],0 (0.0) number (%)
same,AE: Hypertension,[7],4 (15.4) number (%)
same,AE: Hypoglycemia,[7],1 (3.8) number (%)
same,AE: Myalgia,[7],0 (0.0) number (%)
same,"AE: Nausea, vomiting",[7],3 (11.5) number (%)
same,"AE: Productive cough, sputum",[7],4 (15.4) number (%)
same,AE: Pyrexia,[7],0 (0.0) number (%)
same,AE: Toothache,[7],0 (0.0) number (%)
same,AE: Upper respiratory tract infection,[7],2 (7.7) number (%)
same,AE: Urinary tract infection,[7],0 (0.0) number (%)
same,AE: Vertigo,[7],0 (0.0) number (%)
same,Participants with AEs,[7],15 (57.7) number (%)
same,Participants with SAEs,[7],2 (7.7) number (%)
same,Withdrawal due to AEs,[7],0 (0.0) number (%)
same,Cases of serious adverse events (SAEs),[7]; none related to the study drug,two
same,Overall incidence of AEs,[7],57.7%
same,AE: COVID-19,"[7]; human, in vivo",0 (0.0) number (%)
same,Effect on blood trough level of mycophenolate,[2]; [19],does not alter
"COc1ccnc(C[S+]([O-])c2nc3ccc(OC(F)F)cc3[nH]2)c1OC (stereo not shown) [PPI, pantoprazole]",eGFR,[3]; Baseline,57.7 ± 14.9 mL/min/1.73 m^2
same,eGFR,[3]; Week 4,60.1 ± 14.8 mL/min/1.73 m^2
same,eGFR,[3]; Week 8,63.6 ± 14.1 mL/min/1.73 m^2
same,eGFR,[3]; Week 12,60.6 ± 14.7 mL/min/1.73 m^2
same,Allograft Loss,[3],0 number
same,BPAR,[3],0 number
same,RDQ score,[4]; Baseline,3.2 ± 3.3
same,GERD-HRQL score,[4]; [18],2.8 ± 2.3
same,GERD-HRQL score,[4]; Week 4,0.7 ± 1.2
same,RDQ score,[4]; Week 4,0.3 ± 0.9
same,GERD-HRQL score,[4]; Week 8,0.9 ± 1.8
same,RDQ score,[4]; Week 8,0.4 ± 1.0
same,GERD-HRQL score,[4]; Week 12,0.5 ± 1.1
same,RDQ score,[4]; Week 12,0.7 ± 2.0
same,AE: Abdominal discomfort,[7],2 (8.0) number (%)
same,AE: Arthralgia,[7],0 (0.0) number (%)
same,AE: COVID-19,[7],2 (8.0) number (%)
same,AE: Constipation,[7],0 (0.0) number (%)
same,AE: Diarrhea,[7],0 (0.0) number (%)
same,AE: Headache,[7],1 (4.0) number (%)
same,AE: Hypertension,[7],0 (0.0) number (%)
same,AE: Hypoglycemia,[7],0 (0.0) number (%)
same,AE: Myalgia,[7],1 (4.0) number (%)
same,"AE: Nausea, vomiting",[7],0 (0.0) number (%)
same,"AE: Productive cough, sputum",[7],0 (0.0) number (%)
same,AE: Pyrexia,[7],1 (4.0) number (%)
same,AE: Toothache,[7],1 (4.0) number (%)
same,AE: Upper respiratory tract infection,[7],1 (4.0) number (%)
same,AE: Urinary tract infection,[7],1 (4.0) number (%)
same,AE: Vertigo,[7],1 (4.0) number (%)
same,Participants with AEs,[7],7 (28.0) number (%)
same,Participants with SAEs,[7],0 (0.0) number (%)
same,Withdrawal due to AEs,[7],0 (0.0) number (%)
same,Overall incidence of AEs,[7],28.0%
same,Effect on trough levels of tacrolimus and cyclosporine,"[8]; 12 solid organ transplant patients, five consecutive days of therapy",did not affect
same,Effect on serum trough levels of tacrolimus,"[8]; liver transplant recipients, co-administration over one year",does not influence
"C=CC[C@@H]1/C=C(\C)C[C@H](C)C[C@H](OC)[C@H]2O[C@@](O)(C(=O)C(=O)N3CCCC[C@H]3C(=O)O[C@H](/C(C)=C/[C@@H]3CC[C@@H](O)[C@H](OC)C3)[C@H](C)[C@@H](O)CC1=O)[C@H](C)C[C@@H]2OC [Tacrolimus, tacrolimus]","Time in therapeutic range (TTR), P-CAB vs PPI group",[1],comparable between the two groups
same,Tacrolimus trough level,[5]; [10],5.0 ± 1.6 ng/mL
same,Tacrolimus trough level,[5]; [11],5.3 ± 1.3 ng/mL
same,Tacrolimus trough level,[5]; [12],6.3 ± 1.9 ng/mL
same,Tacrolimus trough level,[5]; [13],5.5 ± 1.6 ng/mL
same,Tacrolimus trough level,[5]; [14],5.4 ± 1.4 ng/mL
same,Tacrolimus trough level,[5]; [15],5.5 ± 1.6 ng/mL
same,Tacrolimus trough level,[5]; [16],5.7 ± 2.4 ng/mL
same,Tacrolimus trough level,[5]; [17],5.8 ± 2.0 ng/mL
CNCc1cc(-c2ccccc2F)n(S(=O)(=O)c2cccnc2)c1 [vonoprazan],Effect on tacrolimus concentration,"[9]; KTRs, switching from rabeprazole to vonoprazan, two retrospective studies",increased
same,Effect on tacrolimus trough levels,"[9]; conversion from rabeprazole to vonoprazan, regardless of CYP3A5 genotypes",did not alter
